From patent publication US20200216416A1, “QUINOLINE COMPOUNDS AS INHIBITORS OF TAM AND MET KINASES” (Array BioPharma Inc., priority 2019, published 2020)

Biological target: T1, MDR1 transfected LLC-PK1 cells (Homo sapiens, UniProt P08183)
T1 construct: expressed in transfected cells; host or cells: LLC-PK1
Experiment: MDR1 LLC-PK1 permeability assay
Format: in vitro ADME
Settings: efflux ratio = Papp(B-A)/Papp(A-B)
Outline: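 MDR1-transfected LLC-PK1 monolayers dosed at 1 μM test article (1% organic) in A→B and B→A directions, in triplicate, for 2 h at 37 °C; lucifer yellow monitored monolayer integrity. Compound measured by LC-MS/MS against labetalol internal standard; Papp averaged per replicate, efflux ratio = Papp(B−A)/Papp(A−B).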

T1 sequence (P08183 whole entry): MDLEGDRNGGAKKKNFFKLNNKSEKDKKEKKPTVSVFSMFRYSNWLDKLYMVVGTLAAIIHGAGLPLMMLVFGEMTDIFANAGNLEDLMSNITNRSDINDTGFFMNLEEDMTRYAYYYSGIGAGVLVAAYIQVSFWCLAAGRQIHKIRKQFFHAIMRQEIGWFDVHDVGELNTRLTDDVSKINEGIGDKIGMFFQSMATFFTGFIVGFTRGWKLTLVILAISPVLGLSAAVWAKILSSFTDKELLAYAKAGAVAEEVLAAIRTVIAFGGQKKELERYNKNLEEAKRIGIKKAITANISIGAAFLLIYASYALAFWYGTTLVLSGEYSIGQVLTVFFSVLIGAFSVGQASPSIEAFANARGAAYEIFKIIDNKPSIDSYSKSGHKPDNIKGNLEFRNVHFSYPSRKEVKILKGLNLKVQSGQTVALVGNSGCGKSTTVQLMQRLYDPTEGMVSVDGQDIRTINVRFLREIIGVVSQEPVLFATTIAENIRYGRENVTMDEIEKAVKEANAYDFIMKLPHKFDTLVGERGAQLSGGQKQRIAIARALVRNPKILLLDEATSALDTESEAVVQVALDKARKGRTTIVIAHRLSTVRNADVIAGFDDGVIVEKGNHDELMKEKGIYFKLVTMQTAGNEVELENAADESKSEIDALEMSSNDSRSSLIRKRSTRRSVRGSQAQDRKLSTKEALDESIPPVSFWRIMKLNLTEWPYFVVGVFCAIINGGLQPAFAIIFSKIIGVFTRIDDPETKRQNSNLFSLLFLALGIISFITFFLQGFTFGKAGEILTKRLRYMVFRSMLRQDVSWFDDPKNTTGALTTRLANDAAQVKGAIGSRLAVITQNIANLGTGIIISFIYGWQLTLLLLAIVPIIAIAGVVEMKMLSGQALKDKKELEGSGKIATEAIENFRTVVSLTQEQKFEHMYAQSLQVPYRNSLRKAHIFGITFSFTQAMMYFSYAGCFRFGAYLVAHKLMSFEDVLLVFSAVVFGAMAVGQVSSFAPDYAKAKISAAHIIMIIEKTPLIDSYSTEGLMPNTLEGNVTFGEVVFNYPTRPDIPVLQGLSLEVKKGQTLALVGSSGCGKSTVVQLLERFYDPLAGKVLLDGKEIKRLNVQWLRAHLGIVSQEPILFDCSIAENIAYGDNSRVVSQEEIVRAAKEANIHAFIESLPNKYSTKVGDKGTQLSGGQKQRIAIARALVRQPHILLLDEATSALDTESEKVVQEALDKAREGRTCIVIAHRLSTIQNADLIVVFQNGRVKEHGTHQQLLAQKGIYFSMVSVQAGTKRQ

## COc1cc2nccc(Oc3ccc(NC(=O)c4cn(CCC(C)C)cc(-c5ccc(F)c(F)c5)c4=O)nc3)c2cc1OC [Example 35, 5-(3,4-difluorophenyl)-N-(5-((6,7-dimethoxyquinolin-4yl)oxy)pyridin-2-yl)-1-isopentyl-4-oxo-1,4-dihydropyridine-3-carboxamide]
  MDR1 Pe Ratio: 3.5
